In US20090291942A1, “IMIDAZO PYRIDINE DERIVATIVES” (priority 2008, published 2009) one finds IC50 data, which are given here for 28 molecules.

Structures are written as SMILES. pIC50: −log10 of the molar value. Counter-ions that a name gives are not always drawn.

The assay deals with T1, human GPR4 (Homo sapiens, UniProt P46093).
T1 construct: expressed in transfected cells
Nature of the assay: Cell-based assay for human GPR4 activity (pH-induced cAMP formation, HTRF). The note with it: HeLa cells stably expressing human GPR4, pH-induced cAMP formation. The protocol:
a) Cell-Based Assay for Human GPR4 Activity
HeLa cells stably expressing human GPR4 were established by transfecting the cells with a construct containing the human GPR4 coding sequence. The cells were grown in DMEM/HAM's F12 medium supplemented with 10% fetal calf serum (FCS), 100 u/ml penicillin, 100 μg/ml streptomycin and 400 μg/ml G418 and 10 mM Hepes pH 8.0. pH-induced formation of cAMP was determined using the HTRF technology as provided by CisBio Inc. The cells were seeded in 384-well plates and cultured for 24 hours at 37° C., 5% CO2 before performing the assay. Medium was removed and 10 μl buffer A (HBS, 10 mM Hepes, pH 8, 2 mM IBMX) was added. For compound testing, buffer A with 2× concentrated compounds was used. Cells were incubated for 15 min at room temperature. 10 μl buffer B (HBS, 30 mM Hepes, specific pH) was added to reach the appropriate final pH for stimulation (see below) and incubation was continued for 15 min at room temperature. […] HBS: 130 mM NaCl, 0.9 mM NaH2PO4, 5.4 mM KCl, 0.8 mM MgSO4, CaCl2 1.8 mM, 25 mM glucose, 10-30 mM Hepes. Adjustment of HBS buffers: Bf A Bf B Final stimulation pH (1 volume buffer A+1 volume buffer B)
Compounds were diluted from fresh stock solutions at 10 mM in DMSO to 2 mM and then used for serial dilutions in DMSO.

T1 sequence (P46093 whole entry): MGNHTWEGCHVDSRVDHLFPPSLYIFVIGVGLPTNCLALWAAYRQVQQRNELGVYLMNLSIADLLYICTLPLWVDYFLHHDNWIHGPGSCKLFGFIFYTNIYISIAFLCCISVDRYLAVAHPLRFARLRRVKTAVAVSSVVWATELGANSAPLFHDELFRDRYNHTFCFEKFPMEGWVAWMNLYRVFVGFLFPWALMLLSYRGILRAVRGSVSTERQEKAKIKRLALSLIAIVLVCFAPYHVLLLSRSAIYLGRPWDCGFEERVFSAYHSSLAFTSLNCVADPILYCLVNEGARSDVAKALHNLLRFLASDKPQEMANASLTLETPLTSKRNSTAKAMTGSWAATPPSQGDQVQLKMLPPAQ

The molecule `CCc1nc2c(C)cc(C)nc2n1Cc1ccc(/C=C/CN2CCC(N3CCCC3)CC2)cc1` [Example 32, 2-Ethyl-5,7-dimethyl-3-{4-[(E)-3-(4-pyrrolidin-1-yl-piperidin-1-yl)-propenyl]-benzyl}-3H-imidazo[4,5-b]pyridine] gave a pIC50 of 6.75. The figure for `CCc1nc2c(C)cc(C)nc2n1Cc1ccc(/C=C/CN2CCC(N3CCOCC3)CC2)cc1` [Example 34, 2-Ethyl-5,7-dimethyl-3-{4-[(E)-3-(4-morpholin-4-yl-piperidin-1-yl)-propenyl]-benzyl}-3H-imidazo[4,5-b]pyridine dihydrochloride] is 6.74; for `CCc1nc2c(C)cc(C)nc2n1Cc1ccc(/C=C/CN2CCC(N3CCN(C)CC3)CC2)cc1` [Example 35, 2-Ethyl-5,7-dimethyl-3-(4-{(E)-3-[4-(4-methyl-piperazin-1-yl)-piperidin-1-yl]-propenyl}-benzyl)-3H-imidazo[4,5-b]pyridine] it is 6.47. Consider `CCc1nc2c(C)cc(C)nc2n1Cc1ccc(/C=C/CN2CCC(O)CC2)cc1` [Example 36, 1-{(E)-3-[4-(2-Ethyl-5,7-dimethyl-imidazo[4,5-b]pyridin-3-ylmethyl)-phenyl]-allyl}-piperidin-4-ol], for which the pIC50 is 6.32.

As for `CCc1nc2c(C)cc(C)nc2n1Cc1ccc(/C=C/CN2CCC(OC)CC2)cc1` [Example 37, 2-Ethyl-3-{4-[(E)-3-(4-methoxy-piperidin-1-yl)-propenyl]-benzyl}-5,7-dimethyl-3H-imidazo[4,5-b]pyridine], the negative logarithm of the IC50 (pIC50) was 6.38. For `CCc1nc2c(C)cc(C)nc2n1Cc1ccc(/C=C/CN2CCC(OCC(=O)NC)CC2)cc1` [Example 38, 2-(1-{(E)-3-[4-(2-Ethyl-5,7-dimethyl-imidazo[4,5-b]pyridin-3-ylmethyl)-phenyl]-allyl}-piperidin-4-yloxy)-N-methyl-acetamide] the value was 6.14.

For the molecule `CCc1nc2c(C)cc(C)nc2n1Cc1ccc(/C=C/CN2CCC(O)(CN3CCOCC3)CC2)cc1` [Example 39, 1-{(E)-3-[4-(2-Ethyl-5,7-dimethyl-imidazo[4,5-b]pyridin-3-ylmethyl)-phenyl]-allyl}-4-morpholin-4-ylmethyl-piperidin-4-ol], the pIC50 is 6.55. The molecule `CCc1nc2c(C)cc(C)nc2n1Cc1ccc(/C=C/CN2CCC(c3c[nH]c4ccccc34)CC2)cc1` [Example 40, 2-Ethyl-3-(4-{(E)-3-[4-(1H-indol-3-yl)-piperidin-1-yl]-propenyl}-benzyl)-5,7-dimethyl-3H-imidazo[4,5-b]pyridine hydrochloride] gave a negative logarithm of the IC50 (pIC50) of 6.15.

`CCc1nc2c(C)cc(C)nc2n1Cc1ccc(/C=C/CN2[C@@H]3CC[C@H]2CC(n2cnc4ccccc42)C3)cc1` (stereo partly drawn) [Example 41, 3-{4-[(E)-3-((1R,5S)-3-Benzoimidazol-1-yl-8-aza-bicyclo[3.2.1]oct-8-yl)-propenyl]-benzyl}-2-ethyl-5,7-dimethyl-3H-imidazo[4,5-b]pyridine hydrochloride]: the negative logarithm of the IC50 (pIC50) was 6.10. The figure for `CCc1nc2c(C)cc(C)nc2n1Cc1ccc(/C=C/CN2CCNCC2)cc1` [Example 42, 2-Ethyl-5,7-dimethyl-3-[4-((E)-3-piperazin-1-yl-propenyl)-benzyl]-3H-imidazo[4,5-b]pyridine] is 6.79. For `CCc1nc2c(C)cc(C)nc2n1Cc1ccc(/C=C/CN2CCN(C)CC2)cc1` [Example 43, 2-Ethyl-5,7-dimethyl-3-{4-[(E)-3-(4-methyl-piperazin-1-yl)-propenyl]-benzyl}-3H-imidazo[4,5-b]pyridine] the value was 6.86; for `CCc1nc2c(C)cc(C)nc2n1Cc1ccc(/C=C/CN2CCN(CC)CC2)cc1` [Example 44, 2-Ethyl-3-{4-[(E)-3-(4-ethyl-piperazin-1-yl)-propenyl]-benzyl}-5,7-dimethyl-3H-imidazo[4,5-b]pyridine dihydrochloride], 6.58; for `CCCN1CCN(C/C=C/c2ccc(Cn3c(CC)nc4c(C)cc(C)nc43)cc2)CC1` [Example 45, 2-Ethyl-5,7-dimethyl-3-{4-[(E)-3-(4-propyl-piperazin-1-yl)-propenyl]-benzyl}-3H-imidazo[4,5-b]pyridine], 7.34. `CCc1nc2c(C)cc(C)nc2n1Cc1ccc(/C=C/CN2CCN(C3CC3)CC2)cc1` [Example 47, 3-{4-[(E)-3-(4-Cyclopropyl-piperazin-1-yl)-propenyl]-benzyl}-2-ethyl-5,7-dimethyl-3H-imidazo[4,5-b]pyridine dihydrochloride] gave a pIC50 of 6.39. `CCCCN1CCN(C/C=C/c2ccc(Cn3c(CC)nc4c(C)cc(C)nc43)cc2)CC1` [Example 48, 3-{4-[(E)-3-(4-Butyl-piperazin-1-yl)-propenyl]-benzyl}-2-ethyl-5,7-dimethyl-3H-imidazo[4,5-b]pyridine dihydrochloride] gave a pIC50 of 6.71.

With `CCc1nc2c(C)cc(C)nc2n1Cc1ccc(/C=C/CN2CCN(C(C)CC)CC2)cc1` (stereo not shown) [Example 49, 3-{4-[(E)-3-(4-sec-Butyl-piperazin-1-yl)-propenyl]-benzyl}-2-ethyl-5,7-dimethyl-3H-imidazo[4,5-b]pyridine], the pIC50 was 7.00. For `CCc1nc2c(C)cc(C)nc2n1Cc1ccc(/C=C/CN2CCN(CC(C)C)CC2)cc1` [Example 50, 2-Ethyl-3-{4-[(E)-3-(4-isobutyl-piperazin-1-yl)-propenyl]-benzyl}-5,7-dimethyl-3H-imidazo[4,5-b]pyridine dihydrochloride] the value was 6.33; for `CCc1nc2c(C)cc(C)nc2n1Cc1ccc(/C=C/CN2CCN(C(C)(C)C)CC2)cc1` [Example 51, 3-{4-[(E)-3-(4-tert-Butyl-piperazin-1-yl)-propenyl]-benzyl}-2-ethyl-5,7-dimethyl-3H-imidazo[4,5-b]pyridine], 6.79. In turn, `CCc1nc2c(C)cc(C)nc2n1Cc1ccc(/C=C/CN2CCN(CCC(C)C)CC2)cc1` [Example 52, 2-Ethyl-5,7-dimethyl-3-(4-{(E)-3-[4-(3-methyl-butyl)-piperazin-1-yl]-propenyl}-benzyl)-3H-imidazo[4,5-b]pyridine dihydrochloride] gave a pIC50 of 6.85. As for `CCc1nc2c(C)cc(C)nc2n1Cc1ccc(/C=C/CN2CCN(C(CC)CC)CC2)cc1` [Example 53, 2-Ethyl-3-(4-{(E)-3-[4-(1-ethyl-propyl)-piperazin-1-yl]-propenyl}-benzyl)-5,7-dimethyl-3H-imidazo[4,5-b]pyridine dihydrochloride], the pIC50 is 6.71. The molecule `CCCC(C)N1CCN(C/C=C/c2ccc(Cn3c(CC)nc4c(C)cc(C)nc43)cc2)CC1` (stereo not shown) [Example 54, 2-Ethyl-5,7-dimethyl-3-(4-{(E)-3-[4-(1-methyl-butyl)-piperazin-1-yl]-propenyl}-benzyl)-3H-imidazo[4,5-b]pyridine dihydrochloride] had a negative logarithm of the IC50 (pIC50) of 6.78. `CCc1nc2c(C)cc(C)nc2n1Cc1ccc(/C=C/CN2CCN(CC3CCC3)CC2)cc1` [Example 55, 3-{4-[(E)-3-(4-Cyclobutylmethyl-piperazin-1-yl)-propenyl]-benzyl}-2-ethyl-5,7-dimethyl-3H-imidazo[4,5-b]pyridine dihydrochloride] had a pIC50 of 7.07. Consider `CCc1nc2c(C)cc(C)nc2n1Cc1ccc(/C=C/CN2CCN(C3CCCC3)CC2)cc1` [Example 56, 3-{4-[(E)-3-(4-Cyclopentyl-piperazin-1-yl)-propenyl]-benzyl}-2-ethyl-5,7-dimethyl-3H-imidazo[4,5-b]pyridine], for which the negative logarithm of the IC50 (pIC50) is 6.78.

Molecule `CCc1nc2c(C)cc(C)nc2n1Cc1ccc(/C=C/CN2CCN(C3CCCCC3)CC2)cc1` [Example 57, 3-{4-[(E)-3-(4-Cyclohexyl-piperazin-1-yl)-propenyl]-benzyl}-2-ethyl-5,7-dimethyl-3H-imidazo[4,5-b]pyridine dihydrochloride] had a negative logarithm of the IC50 (pIC50) of 6.92. For the molecule `CCc1nc2c(C)cc(C)nc2n1Cc1ccc(/C=C/CN2CCN(CCN(C)C)CC2)cc1` [Example 58, [2-(4-{(E)-3-[4-(2-Ethyl-5,7-dimethyl-imidazo[4,5-b]pyridin-3-ylmethyl)-phenyl]-allyl}-piperazin-1-yl)-ethyl]-dimethyl-amine trihydrochloride], the negative logarithm of the IC50 (pIC50) is 6.59.

`CCc1nc2c(C)cc(C)nc2n1Cc1ccc(/C=C/CN2CCN(CCCN(C)C)CC2)cc1` [Example 59, [3-(4-{(E)-3-[4-(2-Ethyl-5,7-dimethyl-imidazo[4,5-b]pyridin-3-ylmethyl)-phenyl]-allyl}-piperazin-1-yl)-propyl]-dimethyl-amine dihydrochloride]: the negative logarithm of the IC50 (pIC50) is 6.64. The figure for `CCc1nc2c(C)cc(C)nc2n1Cc1ccc(/C=C/CN2CCN(CCN(CC)CC)CC2)cc1` [Example 60, Diethyl-[2-(4-{(E)-3-[4-(2-ethyl-5,7-dimethyl-imidazo[4,5-b]pyridin-3-ylmethyl)-phenyl]-allyl}-piperazin-1-yl)-ethyl]-amine hydrochloride] is 6.00; for `CCc1nc2c(C)cc(C)nc2n1Cc1ccc(/C=C/CN2CCN(CCN(C(C)C)C(C)C)CC2)cc1` [Example 61, [2-(4-{(E)-3-[4-(2-Ethyl-5,7-dimethyl-imidazo[4,5-b]pyridin-3-ylmethyl)-phenyl]-allyl}-piperazin-1-yl)-ethyl]-diisopropyl-amine trihydrochloride] it is 6.30.

By pIC50 is commonly meant the IC50 on a negative log10 scale, so that one unit is a factor of ten.
